Tests used:
[1] = target: T1, CISD2 Gene Product (NAF-1) (Homo sapiens, UniProt Q8N5K1); experiment: Stability of Fe-S cluster binding of purified NEET protein (absorbance 458 nm); type: biochemical
T1 sequence (Q8N5K1 57-135 limits assumed): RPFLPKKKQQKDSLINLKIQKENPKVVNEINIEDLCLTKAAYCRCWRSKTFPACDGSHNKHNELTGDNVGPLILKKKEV
Procedure: (§1) The modulator effect on the NEET proteins encoded by human CISD1, CISD2, and CISD3 genes by the compounds of the invention has been tested and is reported below. Particularly, the biochemical function of the NEET proteins is measured by the stability of Fe—S cluster binding of the purified NEET proteins.
(§2) The Fe—S cluster binding capacity of NEET proteins is known to be coordinated by four amino-acids in a stretch of 16 (three Cysteine and one Histidine). As the lability of the Fe—S cluster of NEET proteins is sensitive to the environment, cluster stability measurements are one of the measures of interactions of NEET proteins with small molecules and compounds. NEET protein/2Fe-2S cluster stability can be assessed by monitoring the decay in absorbance of its characteristic 458-nm peak (characteristic of the oxidized 2Fe-2S cluster) over time. Each NEET protein (mitoNEET, NAF-1 and Miner 2) was tested for its Fe—S binding in the absence or presence of a compound according to the invention (see table 3 below). The rate of cluster release (time in minutes to achieve 50% loss of bound Fe—S cluster) was compared for each NEET protein in the presence of one of the compounds of the invention (in a 1:3 protein:compound molar ratio) relative to each protein alone.
(§3) At pH 6, all the three NEET proteins (mitoNEET, NAF-1 and Miner 2) have a characteristic rate of loss of the bound Fe—S cluster that can be measured by the decrease of absorbance at wavelength 458 nm over time, using a spectrophotometer. Thus, Bis-Tris buffer (100 mM Bis-Tris pH6, 100 mM Nacl) was used at pH 6 to dilute either DMSO (Blank sample: Bis-Tris Buffer pH 6, 66 μM DMSO), DMSO and one of the three NEET proteins (Control sample: Bis-Tris Buffer pH 6, 66 μM DMSO, 20 μM purified NEET protein) or DMSO, one of the three NEET proteins and a compound of the invention (Test sample: Bis-Tris Buffer pH 6, 66 μM DMSO, 20 μM purified NEET protein, 60 μM compound of the invention).
(§4) A reaction mix containing DMSO diluted in the Bis-Tris Buffer with or without a compound of the invention was prepared. The purified NEET protein was the last component added to the reaction mix which was then aliquoted into 4 replicates in 96 wells plates. The absorbance at wavelength 458 nm was taken at 5 minutes intervals at 37° C. with a spectrofluorimeter. The assay run time for CISD2 gene product (NAF-1) was 500 minutes and 180 minutes for both the CISD 1 gene product (mitoNEET) and the CISD3 gene product (Miner 2).
(§5) In addition to time monitoring, residual bound Fe—S cluster to NEET protein was measured at the final point of the spectrometry assay for each Test sample and compared to the Control sample data (in parenthesis table 3). This residual binding is measured by the differential percentage between the absorbance 458 nm at time zero and the absorbance 458 nm at the end of the experiment (i.e. respectively 500 or 180 minutes as described hereabove), showing the percentage of NEET protein still able to bind Fe—S cluster.
(§6) Analysis of the absorbance enables the time for which 50% loss of bound Fe—S cluster is reached (i.e. a 50% absorbance decrease at 458 nm) for each Test sample and each Control sample (in parenthesis table 3) to be determined. The data are then compared to determine whether the compound of the invention stabilizes or destabilizes the NEET protein/Fe—S cluster binding.
(§7) Stabilisers of Fe—S cluster binding by the NEET proteins slow the release of bound Fe—S (i.e. increase the time needed to reach 50% Fe—S cluster bound loss by more than 25% for the Test sample compared to the Control sample). As illustrated by table 3, at the concentrations tested, stabilisers of CISD1 Gene Product (mitoNEET) are the compounds #9, #18, #26, #2, #1, and #42. Stabilisers of CISD2 Gene Product (NAF-1) are the compounds #2, #1, and #40. Stabilisers of CISD3 Gene Product (Miner2) are the compounds #9, #18, #26, #2, #1, and #42.

[2] = target: T2, CISD1 Gene Product (mitoNEET) (Homo sapiens, UniProt Q9NZ45); experiment: as above; type: biochemical
T2 sequence (Q9NZ45 33-108 limits assumed): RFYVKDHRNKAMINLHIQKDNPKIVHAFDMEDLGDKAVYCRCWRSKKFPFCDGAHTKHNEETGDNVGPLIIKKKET
Procedure: as §1, §2, §3, §4, §5, §6, §7

[3] = target: T3, CISD3 Gene Product (Miner2) (Homo sapiens, UniProt P0C7P0); experiment: as above; type: biochemical
T3 sequence (P0C7P0 15-127): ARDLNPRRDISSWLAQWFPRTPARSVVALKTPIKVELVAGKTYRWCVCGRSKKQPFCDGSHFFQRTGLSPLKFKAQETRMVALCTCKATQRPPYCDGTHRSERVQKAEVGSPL
Procedure: as §1, §2, §3, §4, §5, §6, §7

[4] = test system: H1N1 (influenza A/New Caledonia/20/99); experiment: Antiviral effect on A549 cells infected with H1N1; type: cell-based, H1N1 A/New Caledonia/20/99 virus; conditions: Influenza A virus, MOI 0.1, 48 h post-infection, MUNANA neuraminidase readout
Summary of the method: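 A549 cells dosed with test compounds over a concentration range and infected at once with clinical isolate H1N1 A/New Caledonia/20/99 (MOI 0.1) in DMEM with […] TPCK trypsin, 37 °C. At 48 h, supernatant neuraminidase activity measured with MUNANA substrate (1 h, 37 °C); 4-MU fluorescence at ex 365/em 450 nm.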

SMILES: O=C(Nc1scc(-c2ccc(Cl)c(F)c2)c1C(=O)O)c1ccccc1 [Compound #2, 2-Benzamido-4-(4-chloro-3-fluoro-phenyl)thiophene-3-carboxylic acid]
- Residual cluster bound at end of experiment (Percentage Absorbance 458 nm at time zero) ([1]; at 500 minutes, 60 μM compound, vehicle control 3%): 18% (3%)
- Stabiliser of Fe—S cluster binding (time to 50% loss increased by more than 25% vs control) ([1]; at the concentrations tested): Stabilisers
- Time (in minutes) to achieve 50% loss of bound cluster (Absorbance 458 nm) ([1]; pH 6, 37° C., 20 μM protein, 60 μM compound, run time 500 minutes, vehicle control 310): during 500 minutes
- Residual cluster bound at end of experiment (Percentage Absorbance 458 nm at time zero) ([2]; at 180 minutes, 60 μM compound, vehicle control 16%): 36% (16%)
- Stabiliser of Fe—S cluster binding (time to 50% loss increased by more than 25% vs control) ([2]; at the concentrations tested): stabilisers
- Time (in minutes) to achieve 50% loss of bound cluster (Absorbance 458 nm) ([2]; pH 6, 37° C., 20 μM protein, 60 μM compound, run time 180 minutes, vehicle control 80): during 180 minutes
- Residual cluster bound at end of experiment (Percentage Absorbance 458 nm at time zero) ([3]; CISD3 gene product, at 180 minutes, 60 μM compound, vehicle control (DMSO) 11%): 52% (11%)
- Stabiliser of Fe—S cluster binding (time to 50% loss increased by more than 25% vs control) ([3]; Miner2, at the concentrations tested): Stabilisers
- Time (in minutes) to achieve 50% loss of bound cluster (Absorbance 458 nm) ([3]; Miner2, pH 6, 37° C., 20 μM protein, 60 μM compound, run time 180 minutes, vehicle control 60): during 180 minutes
- IC50 [4]: 210 nM
